The test deals with p70S6K(h) (Homo sapiens, UniProt P23443). The test can be described thus: Enzyme Inhibition Assay (p70S6K(h)). It is filed as biochemical. As to conditions: at 0.3 μM concentration. The method, then:
Enzyme Inhibition Assay (p70S6K(h))
In a final reaction volume of 25 uL, p70S6K(h) (5-10 mU) is incubated with 8 mM MOPS pH 7.0, 0.2 mM EDTA, 100 iM KKRNRTLTV, 10 mM MgAcetate and [gamma-33P-ATP] (specific activity approx. 500 cpm/pmol, concentration as required). The reaction is initiated by the addition of the MgATP mix. After incubation for 40 minutes at room temperature, the reaction is stopped by the addition of 5 uL of a 3% phosphoric acid solution. 10 uL of the reaction is then spotted onto a P30 filtermat and washed three times for 5 minutes in 75 mM phosphoric acid and once in methanol prior to drying and scintillation counting.
Sequence of p70S6K(h) (P23443 whole entry): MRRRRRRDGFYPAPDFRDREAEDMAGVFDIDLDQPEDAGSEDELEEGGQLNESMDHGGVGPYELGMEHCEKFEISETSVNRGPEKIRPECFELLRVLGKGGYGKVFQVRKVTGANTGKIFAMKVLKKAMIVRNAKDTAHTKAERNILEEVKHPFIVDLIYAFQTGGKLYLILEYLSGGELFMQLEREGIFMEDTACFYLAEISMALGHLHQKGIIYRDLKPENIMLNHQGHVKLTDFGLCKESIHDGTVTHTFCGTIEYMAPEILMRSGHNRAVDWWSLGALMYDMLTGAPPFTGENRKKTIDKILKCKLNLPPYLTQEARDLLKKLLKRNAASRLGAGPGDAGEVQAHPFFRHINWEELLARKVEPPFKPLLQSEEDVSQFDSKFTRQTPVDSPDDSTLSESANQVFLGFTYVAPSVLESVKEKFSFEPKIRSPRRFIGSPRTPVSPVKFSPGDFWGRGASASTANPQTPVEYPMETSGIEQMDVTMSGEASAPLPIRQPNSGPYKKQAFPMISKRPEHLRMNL
In turn, `Oc1nnc(Cl)c2cc(NCc3cccc(C(F)(F)F)c3)ccc12` [Example 24, 4-chloro-6-(3-trifluoromethyl-benzylamino)-phthalazin-1-ol] returned an inhibition at 0.3 µM of more than 50%.
The result for `O=C(Nc1cccc(C(F)(F)F)c1)c1ccc2c(O)nnc(Cl)c2c1` [Example 26, 4-Chloro-1-hydroxy-phthalazine-6-carboxylic acid (3-trifluoromethyl-phenyl)-amide] reads more than 50%; that for `O=C(Nc1cccc(C(F)(F)F)c1)c1ccc2c(O)nnc(I)c2c1` [Example 42, 4-Iodo-1-hydroxy-phthalazine-6-carboxylic acid (3-trifluoromethyl-phenyl)-amide], more than 50%; that for `O=c1[nH]nc(Cl)c2ccc(Nc3cccc(C(F)(F)F)c3)cc12` [Example 64, 4-Chloro-7-(3-trifluoromethyl-phenylamino)-2H-phthalazin-1-one], more than 50%.
For the compound `O=c1[nH]nc(Cl)c2cc(NCc3cccc4c3OCCCO4)ccc12` [Example 107, 4-Chloro-6-[(3,4-dihydro-2H-benzo[b][1,4]dioxepin-6-ylmethyl)-amino]-2H-phthalazin-1-one], the inhibition at 0.3 µM is more than 50%.
The same measure for `O=c1[nH]nc(Cl)c2cc(N3CCN(c4ccccc4)CC3)ccc12` [Example 126, 4-Chloro-6-(4-phenyl-piperazin-1-yl)-2H-phthalazin-1-one]: more than 50%.

These data come from patent US8349836B2, “Phthalazine derivatives as inhibitors of protein kinase” (priority 2006, dated 2013).
